Experimental data taken from US12370200B2, “Pharmaceutical composition containing brexanolone, ganaxolone, or zuranolone, and use thereof” (Brii Biosciences, Inc., priority 2019, dated 2025).
Values after ≈ are worked out from the molar mass of the structure shown. Like-named read-outs stand apart in the source and are kept apart here.

Tests used:
[1] = human plasma, after oral administration; cited from earlier work
[2] = Solubility of brexanolone by visual assessment of dissolution in various solvents; type: physicochemical; conditions: for solubility / solubility at 1 h: thermodynamic from solid; for solubility at 1 h: 40° C. for 1 h
Description: Solubility of the supplied brexanolone was determined by visual assessment of dissolution in various solvents at RT (˜22° C.) and 40° C. Aliquots of solvent were added to a fixed amount of brexanolone (˜10 mg) at room temperature until the dissolution point or a maximum volume of 1.8 mL was reached. All samples were then heated to 40° C. for 1 h and dissolution was observed. As shown in Error!

CC(=O)[C@H]1CC[C@H]2[C@@H]3CC[C@H]4C[C@](C)(O)CC[C@]4(C)[C@H]3CC[C@]12C [Ganaxolone, ganaxolone]
half-life [1]: approximately 20 hours

CC(=O)[C@H]1CC[C@H]2[C@@H]3CC[C@H]4C[C@H](O)CC[C@]4(C)[C@H]3CC[C@]12C [brexanolone]
solubility ([2]; 22 °C, organic solvent or mixture, RT, in MeCN, IPE, MTBE, IPA, MeOH, IPA:water (9:1, v:v), toluene, DMSO, EtOAc (span over these solvents), read-out: moderate solubility at RT): 6 to 52 mg/mL (≈ 18.8 to 163 mM) | solubility ([2]; 22 °C, organic solvent or mixture, RT, in THF and DCM, read-out: high solubility at RT): > 96 mg/mL | solubility at 1 h ([2]; organic solvent or mixture, solvent 2-Propanol (IPA)): > 19 mg/mL | solubility ([2]; organic solvent or mixture, solvent 2-Propanol (IPA), RT (~22° C.), read-out: Solubility at RT): 19 to 49 mg/mL (≈ 59.7 to 154 mM) | solubility at 1 h ([2]; organic solvent or mixture, solvent 2-Propanol:water (9:1, v:v)): > 20 mg/mL | solubility ([2]; organic solvent or mixture, solvent 2-Propanol:water (9:1, v:v), RT (~22° C.), read-out: Solubility at RT): 20 to 51 mg/mL (≈ 62.8 to 160 mM) | solubility at 1 h ([2]; organic solvent or mixture, solvent Acetonitrile (MeCN)): > 6 mg/mL | solubility ([2]; organic solvent or mixture, solvent Acetonitrile (MeCN), RT (~22° C.), read-out: Solubility at RT): 6 to 10 mg/mL (≈ 18.8 to 31.4 mM) | solubility at 1 h ([2]; organic solvent or mixture, solvent Dichloromethane (DCM)): > 108 mg/mL | solubility ([2]; organic solvent or mixture, solvent Dichloromethane (DCM), RT (~22° C.), read-out: Solubility at RT): 108 to 432 mg/mL (≈ 339 to 1360 mM) | solubility at 1 h ([2]; organic solvent or mixture, solvent Dimethyl sulfoxide (DMSO)): > 20 mg/mL | solubility ([2]; organic solvent or mixture, solvent Dimethyl sulfoxide (DMSO), RT (~22° C.), read-out: Solubility at RT): 20 to 49 mg/mL (≈ 62.8 to 154 mM) | solubility at 1 h ([2]; organic solvent or mixture, solvent Ethyl Acetate (EtOAc)): > 21 mg/mL | solubility ([2]; organic solvent or mixture, solvent Ethyl Acetate (EtOAc), RT (~22° C.), read-out: Solubility at RT): 21 to 52 mg/mL (≈ 65.9 to 163 mM) | solubility at 1 h ([2]; organic solvent or mixture, solvent Isopropyl ether (IPE)): > 6 mg/mL | solubility ([2]; organic solvent or mixture, solvent Isopropyl ether (IPE), RT (~22° C.), read-out: Solubility at RT): 6 to 11 mg/mL (≈ 18.8 to 34.5 mM) | solubility at 1 h ([2]; organic solvent or mixture, solvent Methanol (MeOH)): > 19 mg/mL | solubility ([2]; organic solvent or mixture, solvent Methanol (MeOH), RT (~22° C.), read-out: Solubility at RT): 19 to 49 mg/mL (≈ 59.7 to 154 mM) | solubility at 1 h ([2]; organic solvent or mixture, solvent Methyl t-butyl ether (MTBE)): > 10 mg/mL | solubility ([2]; organic solvent or mixture, solvent Methyl t-butyl ether (MTBE), RT (~22° C.), read-out: Solubility at RT): 10 to 20 mg/mL (≈ 31.4 to 62.8 mM) | solubility at 1 h ([2]; organic solvent or mixture, solvent Tetrahydrofuran (THF)): > 96 mg/mL | solubility ([2]; organic solvent or mixture, solvent Tetrahydrofuran (THF), RT (~22° C.), read-out: Solubility at RT): 96 to 384 mg/mL (≈ 301 to 1210 mM) | solubility at 1 h ([2]; organic solvent or mixture, solvent Toluene): > 20 mg/mL | solubility ([2]; organic solvent or mixture, solvent Toluene, RT (~22° C.), read-out: Solubility at RT): 20 to 50 mg/mL (≈ 62.8 to 157 mM) | Solubility at RT ([2]; solvent Water, RT (~22° C.)): <6 mg/mL | solubility at 1 h ([2]; solvent Water): < 6 mg/mL | solubility ([2]; solvent Water, RT (~22° C.), read-out: Solubility at RT): < 6 mg/mL
